Test system: Zea mays
Assay: early growth (after seedling emergence) of Zea mays
Assay type: in vivo
Conditions: for Leaf area / No. of roots / Root dry wt./plant / Root length / Shoot dry wt./plant / Spent seed dry wt.: 15 DAS
Description: Plastic pots (7.5 cm dia) were filled with 15 g of autoclaved vermiculite. Seeds of corn (Zea mays—Poaceae), bean (Phaseolus vulgaris—Fabaceae), canola (Brassica napus—Brassicaceae), cucumber (Cucumis sativus—Cucurbitaceae), cantaloupe (Cucumis melo—Cucurbitaceae), cotton (Gossypium sp.—Malvaceae), lettuce (Lactuca sativa—Asteraceae), beet (Beta vulgaris—Chenopodiaceae), and soybean (Glycine max—Fabaceae), were placed at 2.5 cm deep at the rate of 5 or 10 seeds per pot. […] Acetonitrile was included as one of the controls since LCO was purified in this solvent (see Example 3), after 4 days the pots were irrigated with 10 mL of water once every two days. Each treatment had 4 replications in a randomized block design. Pots were placed on a green house bench maintained at 25±2° C. with a day/night cycle 16/8 h and relative humidity of 70%, or in a growth chamber set at 15° C. with a 16:8 day/night cycle. The percent seedling emergence was recorded at 4 days after sowing (DAS). Plant height was recorded from 4 DAS to 15 DAS. Plants were harvested at 15 DAS and leaf area, root length and the number of roots per plant were recorded. The plants were then dissected and placed in paper covers and dried at 90° C. for 24 h and the dry weights of roots, shoots and the spent seeds recorded. The data were analyzed with the Statistical Analysis System version 6.12 (SAS institute Inc. Cary, N.C., USA).

For `CCCCCCC=CCCCCCCCCCC(=O)NC1C(OC2C(CO)OC(OC3C(CO)OC(OC4C(CO)OC(OC5C(COC6OC(C)C(O)C(O)C6OC)OC(O)C(NC(C)=O)C5O)C(NC(C)=O)C4O)C(NC(C)=O)C3O)C(NC(C)=O)C2O)OC(CO)C(O)C1O` (stereo not shown) [LCO, NodBj-V(C18:1Δ11)], the “Plant height at 15 DAS” value (LCO 10−^5) was 102.9 c mm, the Leaf area (LCO 10−^5) was 11.7 cd cm^2 and the No. of roots (LCO 10−^5) was 6.8 cd. The Root dry wt./plant (LCO 10−^5) was 75.7 cd mg, the Root length (LCO 10−^5) was 137.0 cd mm and the Shoot dry wt./plant (LCO 10−^5) was 41.6 bcd mg. For the same compound, the “Spent seed dry wt.” value (LCO 10−^5) was 123.5 bc mg, the “Plant height at 15 DAS” value (LCO 10−^6) was 130.4 ab mm and the Leaf area (LCO 10−^6) was 18.2 a cm^2. The No. of roots (LCO 10−^6) was 7.66 abc, the Root dry wt./plant (LCO 10−^6) was 85.1 bc mg and the Root length (LCO 10−^6) was 150.8 bc mm. The Shoot dry wt./plant (LCO 10−^6) was 51.4 b mg, the “Spent seed dry wt.” value (LCO 10−^6) was 90.7 cd mg and the “Plant height at 15 DAS” value (LCO 10−^7) was 130.1 ab mm. It also gave a Leaf area (LCO 10−^7) of 15.7 ab cm^2, a No. of roots (LCO 10−^7) of 8.0 ab and a Root dry wt./plant (LCO 10−^7) of 96.5 ab mg. The Root length (LCO 10−^7) was 153.9 b mm, the Shoot dry wt./plant (LCO 10−^7) was 51.6 b mg and the “Spent seed dry wt.” value (LCO 10−^7) was 99.5 cd mg. The “Plant height at 15 DAS” value (LCO 10−^8) was 142.6 a mm, the Leaf area (LCO 10−^8) was 19.3 a cm^2 and the No. of roots (LCO 10−^8) was 8.4 a. For the same compound, the Root dry wt./plant (LCO 10−^8) was 103.4 a mg, the Root length (LCO 10−^8) was 187.0 a mm and the Shoot dry wt./plant (LCO 10−^8) was 66.2 a mg. The “Spent seed dry wt.” value (LCO 10−^8) was 76.3 mg·days, the “Plant height at 15 DAS” value (LCO 10−^9) was 134.7 ab mm and the Leaf area (LCO 10−^9) was 17.0 ab cm^2. The No. of roots (LCO 10−^9) was 7.75 abc, the Root dry wt./plant (LCO 10−^9) was 83.3 bc mg and the Root length (LCO 10−^9) was 144.4 cbd mm. For the same compound, the Shoot dry wt./plant (LCO 10−^9) was 46.8 bc mg, the “Spent seed dry wt.” value (LCO 10−^9) was 93.7 cd mg and the “Plant height at 15 DAS” value (LCO 10−^10) was 127.1 b mm. For the same compound, the Leaf area (LCO 10−^10) was 13.9 bc cm^2, the No. of roots (LCO 10−^10) was 7.95 ab and the Root dry wt./plant (LCO 10−^10) was 89.5 abc mg. For the same compound, the Root length (LCO 10−^10) was 149.1 bc mm, the Shoot dry wt./plant (LCO 10−^10) was 51.4 b mg and the “Spent seed dry wt.” value (LCO 10−^10) was 89.8 cd mg. The “Plant height at 15 DAS” value (LCO 10−^11) was 103.3 mm, the Leaf area (LCO 10−^11) was 8.51 def cm^2 and the No. of roots (LCO 10−^11) was 6.69 cd. It also gave a Root dry wt./plant (LCO 10−^11) of 74.6 cd mg, a Root length (LCO 10−^11) of 132.1 d mm and a Shoot dry wt./plant (LCO 10−^11) of 38.0 cde mg. The “Spent seed dry wt.” value (LCO 10−^11) was 115.9 bc mg, the “Plant height at 15 DAS” value (LCO 10−^12) was 98.3 c mm and the Leaf area (LCO 10−^12) was 8.0 def cm^2. The No. of roots (LCO 10−^12) was 7.25, the Root dry wt./plant (LCO 10−^12) was 84.6 bc mg and the Root length (LCO 10−^12) was 137.9 cd mm. For the same compound, the Shoot dry wt./plant (LCO 10−^12) was 40.6 bcde mg, the “Spent seed dry wt.” value (LCO 10−^12) was 105.4 od mg and the “Plant height at 15 DAS” value (LCO 10−^13) was 91.8 cd mm. The Leaf area (LCO 10−^13) was 10.4 cde cm^2, the No. of roots (LCO 10−^13) was 6.7 cd and the Root dry wt./plant (LCO 10−^13) was 85.4 bc mg. For the same compound, the Root length (LCO 10−^13) was 130.9 d mm, the Shoot dry wt./plant (LCO 10−^13) was 43.6 bc mg and the “Spent seed dry wt.” value (LCO 10−^13) was 109.6 cd mg. The “Plant height at 15 DAS” value (LCO 10−^14) was 99.9 c mm, the Leaf area (LCO 10−^14) was 11.2 cde cm^2 and the No. of roots (LCO 10−^14) was 7.36 abc. It also gave a Root dry wt./plant (LCO 10−^14) of 90.2 abc mg, a Root length (LCO 10−^14) of 136.8 cd mm and a Shoot dry wt./plant (LCO 10−^14) of 46.6 bc mg. For the same compound, the “Spent seed dry wt.” value (LCO 10−^14) was 102.9 cd mg, the “α-amylase activity in the treated seeds” value (corn seeds) was “dramatic increase” and the “start of seedling emergence after seeding” value (corn, control 3–4 days) was 2 to 3 days. For the same compound, the “LCO concentration of optimum effect” value (early growth of corn (Table 3)) was 10^−8 M.
